According to patent US5661185A, “Melatonergic agents” (Bristol-Myers Squibb Co., priority 1995, dated 1997):

How the values were obtained:
[1] = system: forskolin-stimulated accumulation of cAMP; test: Cyclic AMP accumulation in intact cells (block of forskolin-stimulated accumulation of cAMP); type: cell-based; conditions: for EC50: 10 min, 37° C.; for Emax: relative to melatonin, read-out: I.A. (Intrinsic Activity) = Emax (experimental compound)/Emax (melatonin)
Text: Further, the compounds are agonists as determined by their ability, like melatonin, to block the forskolin-stimulated accumulation of cAMP in certain cells.
Measurement of Functional Activity
Cyclic AMP Accumalation in Intact Cells: Melatonin
Remove media from cell flask and wash with Hank's salt solution or PBS as appropriate. Detach cells from flask using whatever means are used when splitting. Add enough media so that the concentration of cells is 4×10^5 /ml when counted with a hemocytometer (40 cells in the center square). This concentration of cells can Vary depending on the ultimate cAMP response of the type of cells used. Also, dialyzed fetal bovine serum (FBS) or heat inactivated FBS should be used in the-media when plating the cells in case endogenous substances are present in the FBS that might interfere with the test. Add 1 ml of cell suspension to each well (4×10^5 cells/well), then 2 mls of media and incubate cells overnight.
SOLUTIONS needed for cyclase:
1. Stock solution: plain media (no serum or additives) +20mM HEPES. (500 ml bottle media+10 mls of 1M HEPES GIBCO stock). This solution can be refrigerated and reused.
2. IBMX solution: media/HEPES+1 mM IBMX. (50 mls+11.1 mg IBMX, IBMX mw=222.2). This solution can be refrozen.
3. Assay solution: 90% stock solution+10% IBMX solution. Figure out the volume of solution needed for the assay. Each well gets 3 mls of assay solution for a preincubation and 3 mls for the actual assay, therefore, 6 mls/well. Each test condition is done in triplicate.
a) Basal 7 mls assay solution +[…]
b) Forskolin Stimulation: […]: 7 mls assay solution +[…] (stock solution in freezer, in DMSO)
c) Forskolin+competitor (melatonin): […]: 7 mls assay solution +[…]+desired concentration of competitor (melatonin). Solutions b) and c) can be combined when adding forskolin, then split before adding competitor.
All solutions should be warmed to 37° C. All test conditions are done in triplicate. Plates with cells are kept in a shallow 37° C. water bath throughout the reaction. Remove media from the wells and add 3 ml of preincubation media. After 10 min, remove that solution and add 3 mls of drug solution. After 10 min the media is removed and reaction stopped with 1 ml 0.1N HCl. Staggering the incubation is recommended. The preincubation step can be eliminated if the cells don't adhere well to the plate or the plates can be pretreated with extracellular matrix such as poly-D-lysine. Let samples set for at least an hour at room temperature. Remove 1 ml from dish and put into a microfuge tube. Do a 3 min spin to remove floating cells. Dilute 1:100 for RIA (this dilution will vary depending on the concentration curve of the RIA kit and the cAMP response and concentration of the cells). Do radioimmunoassay (Amersham: Cat.no. RPA.509).

[2] = system: [^125 I]-2-iodomelatonin binding; conditions: comparative study; Copinga et al, J.Med. Chem., 1993, 36, 2891; cited from earlier work
rats = conditions: exogenous melatonin administration, Cassone, et al., 1986; cited from earlier work

| EC50 [1] [nM] | SMILES | Emax [1] [%] | [125I]-2-iodomelatonin binding properties, in words [2] | synchronization of circadian rhythms (rats) |
| --- | --- | --- | --- | --- |
| 4.9 | CCCC(=O)NCCCc1cccc(OC)c1 [Example 2, N-[3-(3-Methoxyphenyl)propyl]butanamide] | 95 | – | – |
| – | COc1cccc(CCNC(C)=O)c1 [compound 10] | – | markedly inferior | – |
| 3.4 | COc1cc(CCCNC(=O)C2CC2)ccc1Cl [Example 30, N-[3-(4-Chloro-3-methoxyphenyl)propyl]-cyclopropane carboxamide] | 98 | – | – |
| 120 | COc1ccc(F)c(/C=C\CNC(=O)C(C)C)c1 [Example 7, cis-N-[3-(2-Fluoro-5-methoxyphenyl)-2-propenyl]-2-methylpropanamide] | 120 | – | – |
| – | COc1ccc2[nH]cc(CCNC(C)=O)c2c1 [melatonin, N-acetyl-5-methoxytryptamine] | – | – | found to synchronize circadian rhythms in rats |
